Data as given in ChEMBL document CHEMBL3507680, “University of Dundee, Gates Library screen for HepG2 cell viability”.

Assay: Human HepG2 cell viability assay in 384 well format
Format: toxicity, cell-based
Design: dose 125 nL, time 70.5 hour; concentration not given beside the values
Conditions: HepG2 cells, read-out: Inhibition

SMILES	cytotoxicity at 70.5 h
COc1ccc(NC(=O)N2CCC3(CC2)NC(=O)CC3C(=O)O)cc1Cl (configuration not stated)	13.1%
COCCN1CC[C@@H]2CN(Cc3nccn3C)C[C@@H]2C1	8.43%
OCCNc1nccc(-c2c[nH]nc2-c2ccncc2)n1	-2.75%
O=C(c1ccco1)N1CCOCC2(C1)CN(c1ccoc1)C(=O)CO2 (configuration not stated)	-10%
O=C1NC2(CCN(CC3CC3)CC2)CC1c1ccccc1 (configuration not stated)	-1.19%
CCn1cc(CN2CCCN(C(=O)CCc3nccs3)CC2)cn1	-12.4%
COc1nc2ccccc2cc1CN1CCC(CNS(C)(=O)=O)C1 (configuration not stated)	0.512%
CS(=O)(=O)c1ccc(NC(=O)NCc2ccc(F)cc2)cn1	-0.885%
CCOCC1CN(Cc2ccoc2)Cc2nn(C)cc21 (configuration not stated)	-4.9%
CCn1ncc2c1C(COC)CN(S(=O)(=O)N(C)C)C2 (configuration not stated)	-10.2%
CC(=O)N1CCN(C(=O)Nc2cnc3c(cnn3C(C)C)c2)CC1	14.8%
Cc1noc2ncc(C(=O)N3CCCC3c3ccsc3)cc12 (configuration not stated)	-1.73%
COCC1CN(Cc2ccc(C)o2)Cc2nnn(CC3CC3)c21 (configuration not stated)	-5.7%
Cc1nc(C)n(CC2CCCN2Cc2cn3ccccc3c2C#N)n1 (configuration not stated)	-6.14%
CC(C)(C)C(=O)NCCC(=O)NCCc1ccn(-c2ccccc2)n1	-4.33%
Oc1nc(N2CCOCC2)nc2c1CCN(Cc1ccc(F)cc1)CC2	-2.02%
CCOCc1nc2c(c(NC(CC)c3cccnc3)n1)CCNCC2 (configuration not stated)	-3.13%
Cc1ccsc1CN1CCC(n2cc(C(O)c3ccccc3)nn2)CC1 (configuration not stated)	-8.81%
Cc1nccnc1N1CCC(Cc2ccccc2Cl)(C(=O)O)CC1	-11.4%
CCc1nc(CN2CCCN(C(=O)c3ccco3)CC2)cs1	16.2%
CS(=O)(=O)c1ncc(CN2CCCC(C(N)=O)C2)n1CC1CCCCC1 (configuration not stated)	-1.8%
CN[C@H]1CC[C@]2(CC1)CNC(=O)c1cc(C)ccc1O2	-8.44%
CCOC1CCC2(CCN(C(=O)c3c[nH]cn3)CC2)c2ccccc21 (configuration not stated)	-6.3%

SMILES	cytotoxicity at 70.5 h
COc1c(C)cnc(CN2CCCC(Cn3nc(C)nc3C)C2)c1C (configuration not stated)	-3.59%
Cc1cc(CN(C)Cc2csc(-c3cccs3)n2)n[nH]1	-1.87%
CC(C)CN1C(=O)CO[C@@H]2CN(C(=O)NC(C)C)C[C@H]21	-2.72%
O=C(c1[nH]nc(C2CC2)c1Cl)N1CCN(C2CC2)C(=O)C1	-1.73%
CN(Cc1ccccc1)C(=O)CCS(=O)(=O)c1ccc2c(c1)OCCO2	-62.4%
CCOc1ccc(C(=O)CCC(=O)NCc2cncn2CC)cc1C	40.5%
CC(=O)N1CCCn2nc(CNS(=O)(=O)Cc3ccccc3)cc2C1	-3.38%
COc1ccc(C2Nc3ccccc3NC3=C2C(=O)NC3)cc1OC (configuration not stated)	-7.99%
CCN1CCC2(CC1)CC(COC)N(Cc1csc(C)n1)C2 (configuration not stated)	-5.79%
O=C(NCCc1cscn1)c1coc(CN2CCOCC2)c1	-8.02%
COCc1nn(C(C)C)c2c1CCN(Cc1nccs1)C2	12.2%
CN1CCN(c2ccccc2CNC(=O)Cc2cccc(F)c2)CC1	9.04%
COCCN1CCC(CNc2cnc3ccccc3n2)CC1	-1.83%
NC(=O)CN1CCC(NC(=O)Nc2nccs2)CC1	21.5%
Cc1ccc(CN2CCC3(CC2)CC(N2CCN(C)CC2)CO3)s1 (configuration not stated)	-9.14%
Cc1cc(CNc2ccnn2CC(C)C)ccc1-n1cncn1	7.96%
Cc1nnc(NCc2cccnc2N(C)C)c(C#N)c1C	2.49%
Cc1cc(C)n(CC(C)NCc2nc(-c3cccnc3)no2)n1 (configuration not stated)	-6.9%
O=C(Nc1cnn(CCN2CCOCC2)c1)c1ccccn1	-4.34%
CC1CS(=O)(=O)CCN1Cc1ccccc1OCC(F)(F)F (configuration not stated)	-6.75%
COc1ccccc1CN1C[C@@H]2COC[C@]2(COCc2ccncc2)C1	-10.2%
Cc1ncsc1C(=O)N1CCCC(CO)(CC2CC2)C1 (configuration not stated)	-7.6%
c1cc(CN2CC[C@H]3O[C@@H](COCC4CCOCC4)CC[C@H]32)ccn1	23.2%

SMILES	cytotoxicity at 70.5 h
Clc1ccc(COCC2CCN(Cc3ccccn3)CC2)cc1	-0.416%
Cc1nc(C2CCCN2C(=O)c2cc3c(s2)CCCC3)no1 (configuration not stated)	-3.98%
CCOC(=O)[C@@H]1[C@@H](c2ccccc2)CN2CCNC[C@H]12	-11%
COCCCNS(=O)(=O)c1ccc(N2CCCCS2(=O)=O)cc1	-9.62%
CNC(=O)CCNC(=O)c1cc(C)n(-c2cccc(OC)c2)c1C	-8.45%
CCCn1cc(NC(=O)c2cccc3cccnc23)ccc1=O	-17.8%
CCn1cc(CN2CCCN(C(=O)CCc3ccccc3)CC2)cn1	-12.3%
Cc1c(CN2CCCC(O)C2)[nH]c2ccc(F)cc12 (configuration not stated)	0.643%
NC(=O)C(CNC(=O)CCc1ccsc1)Cc1ccc(F)cc1 (configuration not stated)	21%
CC1(C)CNC(=O)c2nc(CCN3CCC(O)CC3)[nH]c2C1	-1.47%
CN1CCC(NC(=O)c2cc(Br)cc(Cl)c2O)C1=O (configuration not stated)	-1.22%
CCN(C(=O)c1c(Cl)cnn1CC)C(C)C(N)=O (configuration not stated)	-11.3%
COc1ccccc1S(=O)(=O)N1CCC(Oc2cccnn2)CC1	3.7%
CC(=O)N1C[C@@H]2CC[C@H](C1)N(S(=O)(=O)c1cc(F)ccc1C)C2	-10.6%
Cc1cc(C)n(C2CCCN(C(=O)c3cc(C4CC4)on3)C2)n1 (configuration not stated)	0.784%
O=C([C@@H]1COC[C@H]2CN(c3ccncn3)C[C@H]21)N1CCCC1	10.6%
Cc1ccc2c(c1)c(Sc1ccccc1)c(CC(=O)O)n2C	1.6%
COCC(=O)NC[C@]12COC[C@H]1CN(Cc1ccc3c(c1)OCO3)C2	-0.957%
O=C(NC1COC2(CCN(Cc3ccccn3)CC2)C1)c1ccccn1 (configuration not stated)	3.59%
CC(C)c1nc(C2CCCNC2)no1 (configuration not stated)	14.1%
CC(C)c1nn(C)c(N(C)C)c1CNC1CCOc2ccccc21 (configuration not stated)	7.29%
COCCCN1C(=O)CC[C@H]2CN(c3nc4ccccc4s3)CC[C@H]21	-3.23%
CS(=O)(=O)Cc1ccc(CNC(=O)N2CCC(C(N)=O)C2)cc1 (configuration not stated)	-1.33%

SMILES	cytotoxicity at 70.5 h
c1csc(-c2nc(CN3CCOC(Cn4cncn4)C3)co2)c1 (configuration not stated)	-0.51%
CN1CC[C@]2(CN(Cc3cccs3)C[C@H]2c2ccccc2)C1=O	-4.05%
Cc1ccccc1C(CNc1ncnc2c1CCNC2)N(C)C (configuration not stated)	-7.27%
COC(=O)c1cccc(C(=O)NCc2ccc(C)o2)n1	-18.5%
COc1cccc(OCC(=O)NS(=O)(=O)c2cc(F)ccc2F)c1	-5.46%
Cn1c(=O)cc(C(=O)NC(Cc2ccsc2)c2cccnc2)[nH]c1=O (configuration not stated)	-3.19%
Cn1cc(CCNCc2cc(Cl)c3c(c2)OCCO3)cn1	-2.02%
O=C([C@H]1COC[C@H]2CN(CC3CCC3)C[C@H]21)N1CCOCC1	-6.01%
Cc1ccc(C(=O)NCC2Cc3ccccc3O2)cc1S(C)(=O)=O (configuration not stated)	-1.47%
CCN(Cc1ccncc1)C1CCCN(C/C=C/c2ccc(F)cc2)C1 (configuration not stated)	-3.49%
Cc1cc(NC(C)Cn2cccn2)n2nccc2n1 (configuration not stated)	-12.5%
Cn1nc(CC(C)(C)C)cc1NC(=O)c1ccc2[nH]nnc2c1	19%
CCOCC1CN(C(=O)[C@H]2CCCO2)Cc2nnn(CC3CC3)c21 (some centres not stated)	-1.02%
COCC(c1cccc(C(F)(F)F)c1)N(C)C(=O)c1cnccn1 (configuration not stated)	-9.11%
CC1(C)Oc2ccc(S(=O)(=O)NCCCn3ccnc3)cc2NC1=O	28.6%
Cc1c2ncn(CC(=O)c3ccccc3)c(=O)c2nn1C	-3.76%
Cc1nnsc1C(=O)NCc1cccnc1N1CCCC(O)C1 (configuration not stated)	-15.1%
Cc1nc(CC2CCCN(Cc3nc4ccccc4c(=O)[nH]3)C2)no1 (configuration not stated)	-7.59%
O=C(NCC1CCCN1Cc1ccccc1)NCC1(O)CCC1 (configuration not stated)	31.1%
CC(=O)NC(C)c1ccc(OCC2CC2)c(F)c1 (configuration not stated)	-6.57%
CC(=O)C1(c2ccccc2)CCN(C(=O)c2ccn3nnnc3c2)CC1	-13.3%
Cc1nc(CCCN2CCOCC2)n(Cc2ccc(F)cc2)n1	-12.5%
CN(C)C(=O)N1C[C@@H]2CC[C@H](C1)N(C(=O)c1c(Cl)cccc1Cl)C2	-13.7%

SMILES	cytotoxicity at 70.5 h
CC(=O)N1CCC(CN2CCN(Cc3nccn3C)C(C)C2)CC1 (configuration not stated)	2.21%
Cc1nc(C(NS(=O)(=O)N(C)C)c2ccccc2F)no1 (configuration not stated)	-2.92%
COCC(=O)N[C@H](C)c1onc(-c2ccc(F)cc2)c1C(=O)O	-6.83%
Cc1ccc(N2CCCC(N3CCC4(CC3)OCCO4)C2=O)cc1 (configuration not stated)	-7.88%
CN(C)Cc1nn(C)c2c1CCN(C(=O)c1cnccn1)C2	17.9%
COc1ccc(C(=O)N(C2CC2)C2CC(=O)NC2=O)cc1 (configuration not stated)	-2.33%
CCC(=O)N1CCCCC[C@@H]2[C@@H]1[C@H](c1cccc(F)c1)CN2C	16.4%
Cc1cc(C(=O)NCc2ccc(F)cc2)c2c(C3CCNC3)noc2n1 (configuration not stated)	-7.85%
Cc1noc(CCCC(=O)NC(C)c2nnc3n2CCC3)n1 (configuration not stated)	-4.98%
CC(=O)N1CCN(CCNS(=O)(=O)c2cc(F)ccc2C)CC1	4.62%
COc1ccc(CN(Cc2ccccn2)Cc2cncn2C)cc1	-1.37%
CS(=O)(=O)C1CCN(S(=O)(=O)Cc2cccc(F)c2)CC1	0.12%
O=C(C1CC=CC1)N1CC[C@H]2[C@@H]1CCC(=O)N2c1ccccc1	-3.86%
CNC(=O)[C@@H]1CC[C@@H]2[C@@H](CCN2Cc2cn(C)c3ccccc23)O1	-3.34%
CCc1nc(C2CCCN(C(=O)c3ccccc3O)C2)no1 (configuration not stated)	3.74%
COc1ccc(NC(=O)c2cnc(N3CCN(C)CC3)nc2C)cc1	-6.31%
CCOC(=O)C1CCN(C(=O)c2cc(F)ccc2-n2cnnn2)CC1	3.28%
Fc1ccc(C2(NCc3ccccc3)CCOCC2)cc1	-3.51%
CCN1Cc2nc(OC)c(CNC(=O)C3CCCN(C)C3)cc2C1=O (configuration not stated)	-5.45%
O=C(Cc1ccc2c(c1)CCO2)N1CCN(c2ccccn2)CC1	2.5%
